From US5767128A, “1,3-dihydro-2H-pyrrolo[2,3-b]pyridin-2-one compounds” (Adir et Compagnie, priority 1994, dated 1998)
Like-named read-outs stand apart in the source and are kept apart here.

Key:
[1] = tested on: cramps induced in the mouse by phenylbenzoquinone; assay: Cramps induced with phenylbenzoquinone (SIEGMUND test), analgesic activity, per os; format: in vivo, mouse (male CD-1); conditions: po, read-out: PBO Whrithing, % inhibition (% decrease in the number of cramps compared with the control animals)
Method: 2) Cramps induced with phenylbenzoquinone
Male CD-1 mice randomly divided into groups of 5 receive the test products per os 30 minutes before the intraperitoneal injection of 0.25 cm3 of a 0.01% solution of phenylbenzoquinone in a 95:5 mixture of water and ethanol.
The number of cramps is counted between the 5th and the 15th minute after the injection of phenylbenzoquinone.
(§1) The percentage activity was evaluated for each compound (% decrease in the number of cramps in the treated animals compared with the control animals).

[2] = tested on: abdominal cramps induced in the rat by acetic acid; assay: Cramps induced with acetic acid (KOSTER test), analgesic activity, per os; format: in vivo, rat (male Wistar); conditions: po, read-out: Acetic Acid Writhing, % inhibition (% decrease in the number of cramps compared with the control animals)
Method: 1) Cramps induced with acetic acid
Male Wistar rats randomly divided into groups of 5 (weight 150±10 g) receive the test products per os 30 minutes before the intraperitoneal injection of 1 cm^3 of 1% acetic acid.
The number of cramps is counted during the 25 minutes which follow the injection.
as §1

[3] = mouse, 50 mg/kg per os, 30 minutes before phenylbenzoquinone, count 5th to 15th minute
[4] = rat, 50 mg/kg per os, 30 minutes before acetic acid, 25 minutes count

| Compound | inhibition at 50 mg/kg [1, 3] [%] | inhibition at 50 mg/kg [2, 4] [%] | inhibition at 50 mg/kg ([1]; Mus musculus) [%] | inhibition at 50 mg/kg ([2]; Rattus norvegicus) [%] |
| --- | --- | --- | --- | --- |
| CN1C(=O)Cc2cc(CN3CCN(c4ccccc4)CC3)cnc21 [Example 46, 1,3-DIHYDRO-5-(4-PHENYLPIPERAZIN-1-YLMETHYL)-1-METHYL-2H-PYRROLO[2,3-b]PYRIDIN-2-ONE] | 67 | – | – | – |
| CN1C(=O)Cc2cc(C(=O)CN3CCN(c4ccccc4)CC3)cnc21 [Example 47, 1,3-DIHYDRO-5-[2-(4-PHENYLPIPERAZIN-1-YL)ACETYL)-1-METHYL-2H-PYRROLO[2,3-b]PYRIDIN-2-ONE] | 90 | – | – | – |
| O=C(c1ccccc1)c1cnc2[nH]c(=O)oc2c1 [Example 6, 6-BENZOYLOXAZOLO[4,5-b]PYRIDIN-2(3H)-ONE] | – | 88 | – | – |
| Cn1c(=O)oc2cc(C(O)CN3CCN(c4ccccc4)CC3)cnc21 (stereo not drawn) [Example 24, 3-METHYL-6-[2-(4-PHENYLPIPERAZIN-1-YL)-1-HYDROXYETHYL]OXAZOLO[4,5-b]PYRIDIN-2(3H)-ONE] | 97 | 86 | – | – |
| Cn1c(=O)oc2cc(CN3CCN(c4ccccc4)CC3)cnc21 [Example 16, 3-METHYL-6-[(4-PHENYLPIPERAZIN-1-YL)METHYL]OXAZOLO[4,5-b]PYRIDIN-2(3H)-ONE] | 57 | 98 | – | – |
| CC(=O)Oc1ccccc1C(=O)O [Aspirin, reference compound] | – | – | 62 | 56 |
| Cn1c(=O)oc2cc(CCCN3CCN(c4ccccc4)CC3)cnc21 [Example 20, 3-METHYL-6-[3-(4-PHENYLPIPERAZIN-1-YL)PROP-1-YL]OXAZOLO[4,5-b]PYRIDIN-2(3H)-ONE] | 100 | – | – | – |
| Cn1c(=O)oc2cc(C(=O)c3ccccc3)cnc21 [Example 5, 3-METHYL-6-BENZOYLOXAZOLO[4,5-b]PYRIDIN-2(3-ONE] | 85 | 85 | – | – |
| Cn1c(=O)oc2cc(C(=O)CN3CCN(c4ccccc4)CC3)cnc21 [Example 22, 3-METHYL-6-[2-(4-PHENYLPIPERAZIN-1-YL)ACETYL]OXAZOLO[4,5-b]PYRIDIN-2(3H)-ONE] | 53 | 97 | – | – |
| CC(=O)c1cnc2c(c1)CC(=O)N2C [Example 13, 1,3-DIHYDRO-1-METHYL-5-ACETYL-2H-PYRROLO[2,3-b]PYRIDIN-2-ONE] | – | 96 | – | – |
